Test results reported in patent publication US6489470B1, “Process for the preparation of cefpodoxime proxetil diastereoisomers” (Biochemie Gesellschaft m.b.H., priority 1998, dated 2002).

Experiment: bioequivalence with a commercial form for oral administration
Format: in vivo
Settings: mixture of diastereoisomers, diastereoisomeric ratio (B/A+B) of 0.5 to 0.6

COCC1=C(C(=O)OC(C)OC(=O)OC(C)C)N2C(=O)[C@@H](NC(=O)/C(=N\OC)c3csc(N)n3)C2SC1 (mixture of isomers) [cefpodoxim proxetil, 7-[2-(2-aminothiazol-4-yl)-2-(Z)-(methoxyimino)acetamido]-3-methoxymethyl-3-cephem-4-carboxylic acid-1-(isopropoxycarbonyloxy)ethyl ester]
bioequivalence with a commercial form: bioequivalent
